Measurements: patent US20130121994A1, “TRIAZOLOPYRIDINE DERIVATIVES” (BAYER INTELLECTUAL PROPERTY GMBH, priority 2009, published 2013)

These molecules were tested against T1, human kinase Mps-1 (Homo sapiens, UniProt P33981) (assay: Mps-1 kinase assay (HTRF)).
T1 construct: N-terminally GST-tagged human full length recombinant Mps-1 kinase; GST (N); purchased Invitrogen, Karslruhe, Germany PV4071
T1 sequence (P33981 1-857): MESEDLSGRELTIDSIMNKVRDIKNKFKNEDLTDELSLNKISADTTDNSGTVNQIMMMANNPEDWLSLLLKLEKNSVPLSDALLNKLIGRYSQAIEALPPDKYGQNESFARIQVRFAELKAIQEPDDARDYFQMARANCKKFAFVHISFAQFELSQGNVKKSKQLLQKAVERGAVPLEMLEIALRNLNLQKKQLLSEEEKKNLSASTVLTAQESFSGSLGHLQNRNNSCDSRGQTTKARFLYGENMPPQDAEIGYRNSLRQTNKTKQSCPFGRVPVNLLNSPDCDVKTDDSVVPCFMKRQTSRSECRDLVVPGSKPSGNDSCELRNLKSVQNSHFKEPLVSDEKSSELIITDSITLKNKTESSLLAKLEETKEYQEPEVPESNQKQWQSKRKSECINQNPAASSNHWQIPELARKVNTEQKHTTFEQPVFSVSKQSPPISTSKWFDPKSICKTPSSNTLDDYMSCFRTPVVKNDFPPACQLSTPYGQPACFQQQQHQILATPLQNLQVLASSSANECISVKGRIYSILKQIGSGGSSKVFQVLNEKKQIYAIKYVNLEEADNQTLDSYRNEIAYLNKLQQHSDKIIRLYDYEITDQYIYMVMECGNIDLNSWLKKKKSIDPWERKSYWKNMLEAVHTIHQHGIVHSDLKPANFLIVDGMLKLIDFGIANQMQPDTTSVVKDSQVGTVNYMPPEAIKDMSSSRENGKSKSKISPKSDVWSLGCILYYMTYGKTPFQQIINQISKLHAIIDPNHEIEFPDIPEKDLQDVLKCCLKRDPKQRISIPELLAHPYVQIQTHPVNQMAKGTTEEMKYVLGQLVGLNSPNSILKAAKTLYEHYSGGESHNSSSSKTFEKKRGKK
Type: biochemical
Description: The human kinase Mps-1 phosphorylates a biotinylated substrate peptide. Detection of the phosphorylated product is achieved by homogenous time-resolved fluorescence resonance energy transfer (HTRF) from Europium-labelled anti-phospho-Serine/Threonine antibody as donor to streptavidin labelled with cross-linked allophycocyanin (SA-XLent) as acceptor. Compounds are tested for their inhibition of the kinase activity.
N-terminally GST-tagged human full length recombinant Mps-1 kinase (purchased from Invitrogen, Karslruhe, Germany, cat. no PV4071) was used. As substrate for the kinase reaction a biotinylated peptide of the amino-acid sequence […] (C-terminus in amide form, purchased from Biosynthan GmbH, Berlin) was used.
The concentration of Mps-1 in the assay was adjusted to the activity of the enzyme lot and was chosen appropriate to have the assay in the linear range, typical enzyme concentrations were in the range of about 1 nM (final conc. in the 5 μl assay volume).
The resulting mixture was incubated 1 h at 22° C. to allow the binding of the phosphorylated peptide to the anti-phospho(Ser/Thr)-Europium-antibody. Subsequently the amount of phosphorylated substrate was evaluated by measurement of the resonance energy transfer from the Europium-labelled anti-phospho(Ser/Thr) antibody to the Streptavidin-XLent.

| Structure (SMILES) | IC50 [nM] |
| --- | --- |
| Cc1cc(-c2ccc3nc(Nc4cncnc4)nn3c2)cc(C)c1O [Example 1.4, 2,6-dimethyl-4-[2-(pyrimidin-5-ylamino)[1,2,4]triazolo [1,5-a]pyridin-6-yl]phenol] | 2700 |
| Cc1cc(-c2ccc3nc(Nc4cccnc4)nn3c2)cc(C)c1O [Example 1.8, 2,6-dimethyl-4-[2-(pyridin-3-ylamino)[1,2,4]triazolo [1,5-a]pyridin-6-yl]phenol] | 320 |
| COc1ccc(C#N)cc1Nc1nc2ccc(-c3cc(C)c(O)c(C)c3)cn2n1 [Example 1.13, 3-{[6-(4-hydroxy-3,5-dimethylphenyl)[1,2,4]triazolo[1,5-a]pyridin-2-yl]amino}-4-methoxybenzonitrile] | 640 |
| CCN(CC)C(=O)c1ccc(Nc2nc3ccc(-c4cc(C)c(O)c(C)c4)cn3n2)c(OC)c1 [Example 1.16, N,N-Diethyl-4-[6-(4-hydroxy-3,5-dimethyl-phenyl)-[1,2,4]triazolo[1,5-a]pyridin-2-ylamino]-3-methoxy-benzamide] | 280 |
| COc1ccc(F)cc1Nc1nc2ccc(-c3cccc(NC(C)=O)c3)cn2n1 [Example 2.2, N-(3-{2-[(5-fluoro-2-methoxyphenyl)amino] [1,2,4]triazolo[1,5-a]pyridin-6-yl}phenyl)acetamide] | 470 |
| CC(=O)Nc1cccc(-c2ccc3nc(Nc4cccnc4)nn3c2)c1 [Example 2.4, N-{3-[2-(pyridin-3-ylamino)[1,2,4]triazolo [1,5-a]pyridin-6-yl]phenyl}acetamide] | 3100 |
| CC(=O)Nc1cccc(-c2ccc3nc(Nc4ccc(S(C)(=O)=O)cc4)nn3c2)c1 [Example 2.5, N-[3-(2-{[4-(methylsulfonyl)phen-yl]amino}[1,2,4]triazolo [1,5-a]pyridin-6-yl)phenyl]acetamide] | 770 |
| CC(=O)Nc1cccc(-c2ccc3nc(Nc4ccccc4OC(F)(F)F)nn3c2)c1 [Example 2.6, N-[3-(2-{[2-(trifluoromethoxy)phenyl]amino}[1,2,4]tri-azolo[1,5-a]pyridin-6-yl)phenyl]acetamide] | 340 |
| CC(=O)Nc1cccc(-c2ccc3nc(Nc4ccc(OC(F)(F)F)cc4)nn3c2)c1 [Example 2.7, N-[3-(2-{[4-(trifluoromethoxy)phenyl]amino}[1,2,4]tri-azolo[1,5-a]pyridin-6-yl)phenyl]acetamide] | 3300 |
| CC(=O)Nc1cccc(-c2ccc3nc(Nc4ccc(C#N)cc4)nn3c2)c1 [Example 2.8, N-(3-{2-[(4-cyanophenyl)amino] [1,2,4]triazolo[1,5-a]pyridin-6-yl}phenyl)acetamide] | 1000 |
| CC(=O)Nc1cccc(-c2ccc3nc(Nc4ccc(C(C)C)cc4)nn3c2)c1 [Example 2.9, N-[3-(2-{[4-(propan-2-yl)phenyl]amino}[1,2,4]triazolo[1,5-a]pyridin-6-yl)phenyl]acetamide] | 1800 |
| COc1cccnc1Nc1nc2ccc(-c3cccc(NC(C)=O)c3)cn2n1 [Example 2.11, N-(3-{2-[(3-methoxypyridin-2-yl)amino][1,2,4]triazolo [1,5-a]pyridin-6-yl}phenyl)acetamide] | 3500 |
| N#Cc1ccccc1Nc1nc2ccc(-c3ccccc3)cn2n1 [Example 3.1, 2-[(6-phenyl[1,2,4]triazolo[1,5-a]pyridin-2-yl)amino]benzonitrile] | 860 |
| Cc1cccc(-c2ccc3nc(Nc4ccccc4C#N)nn3c2)c1 [Example 3.3, 2-{[6-(3-methylphenyl)[1,2,4]triazolo[1,5-a]pyridin-2-yl]amino}benzonitrile] | 630 |
| CC(=O)Nc1ccccc1-c1ccc2nc(Nc3ccccc3C#N)nn2c1 [Example 3.4, N-(2-{2-[(2-cyanophenyl)amino] [1,2,4]triazolo[1,5-a]pyridin-6-yl}phenyl)acetamide] | 6100 |
| CS(=O)(=O)Nc1cccc(-c2ccc3nc(Nc4ccccc4C#N)nn3c2)c1 [Example 3.5, N-(3-{2-[(2-cyanophenyl)amino] [1,2,4]triazolo[1,5-a]pyridin-6-yl}phenyl)methane-sulfonamide] | 240 |
| N#Cc1ccccc1Nc1nc2ccc(-c3ccc4cc[nH]c4c3)cn2n1 [Example 3.6, 2-{[6-(1H-indol-6-yl)[1,2,4]triazolo[1,5-a]pyridin-2-yl]amino}benzonitrile] | 940 |
| Cc1cc(O)ccc1-c1ccc2nc(Nc3ccccc3C#N)nn2c1 [Example 3.9, 2-{[6-(4-hydroxy-2-methylphenyl)[1,2,4]triazolo[1,5-a]pyridin-2-yl]amino}benzonitrile] | 740 |

Now those with a lower IC50, led by results:

| IC50 [nM] | Structure (SMILES) |
| --- | --- |
| 200 | COc1cc(C#N)ccc1Nc1nc2ccc(-c3cccc(NC(C)=O)c3)cn2n1 [Example 2.12, N-(3-{2-[(4-cyano-2-methoxyphenyl)amino] [1,2,4]triazolo[1,5-a]pyridin-6-yl}phenyl)acetamide] |
| 180 | COc1ccc(Nc2nc3ccc(-c4cc(C)c(O)c(C)c4)cn3n2)c(OC)c1 [Example 1.2, 4-{2-[(2,4-dimethoxyphenyl)amino] [1,2,4]triazolo[1,5-a]pyridin-6-yl}-2,6-dimethylphenol] |
| 160 | COc1cccnc1Nc1nc2ccc(-c3cc(C)c(O)c(C)c3)cn2n1 [Example 1.14, 4-{2-[(3-methoxypyridin-2-yl)amino][1,2,4]tri-azolo[1,5-a]pyridin-6-yl}-2,6-dimethylphenol] |
| 150 | COc1ccc(F)cc1Nc1nc2ccc(-c3cc(C)c(O)c(C)c3)cn2n1 [Example 1.6, 4-{2-[(5-fluoro-2-methoxyphenyl)amino] [1,2,4]triazolo[1,5-a]pyridin-6-yl}-2,6-dimethylphenol] |
| 140 | Cc1cc(-c2ccc3nc(Nc4ccccc4OC(F)(F)F)nn3c2)cc(C)c1O [Example 1.10, 2,6-dimethyl-4-(2-{[2-(trifluoromethoxy)phenyl]amino}[1,2,4]tri-azolo[1,5-a]pyridin-6-yl)phenol] |
| 140 | N#Cc1ccccc1Nc1nc2ccc(-c3ccc(C(N)=O)cc3)cn2n1 [Example 3.7, 4-{2-[(2-cyanophenyl)amino] [1,2,4]triazolo[1,5-a]pyridin-6-yl}benzamide] |
| 130 | CCOc1ccccc1Nc1nc2ccc(-c3cccc(NC(C)=O)c3)cn2n1 [Example 2.10, N-(3-{2-[(2-ethoxyphenyl)amino] [1,2,4]triazolo[1,5-a]pyridin-6-yl}phenyl)acetamide] |
| 110 | N#Cc1ccccc1Nc1nc2ccc(-c3cccc(C(N)=O)c3)cn2n1 [Example 3.8, 3-{2-[(2-cyanophenyl)amino] [1,2,4]triazolo[1,5-a]pyridin-6-yl}benzamide] |
| 92 | CCOc1ccccc1Nc1nc2ccc(-c3cc(C)c(O)c(C)c3)cn2n1 [Example 1.12, 4-{2-[(2-ethoxyphenyl)amino] [1,2,4]triazolo[1,5-a]pyridin-6-yl}-2,6-dimethylphenol] |
| 52 | N#Cc1ccccc1Nc1nc2ccc(-c3cccc(CO)c3)cn2n1 [Example 3.2, 2-({6-[3-(hydroxymethyl)phen-yl][1,2,4]triazolo[1,5-a]pyridin-2-yl}amino)benzonitrile] |
| 24 | CNC(=O)c1ccc(-c2ccc3nc(Nc4ccccc4C#N)nn3c2)cc1 [Example 3.10, 4-{2-[(2-cyanophenyl)amino] [1,2,4]triazolo[1,5-a]pyridin-6-yl}-N-methylbenzamide] |
| 23 | CNC(=O)c1ccc(Nc2nc3ccc(-c4cc(C)c(O)c(C)c4)cn3n2)cc1 [Example 1.15, 4-{[6-(4-hydroxy-3,5-dimethylphenyl)[1,2,4]triazolo[1,5-a]pyridin-2-yl]amino}-N-methylbenzamide] |
| 17 | COc1cc(C#N)ccc1Nc1nc2ccc(-c3cc(C)c(O)c(C)c3)cn2n1 [Example 1.1, 4-{[6-(4-hydroxy-3,5-dimethylphenyl)[1,2,4]triazolo[1,5-a]pyridin-2-yl]amino}-3-methoxybenzonitrile] |
| 6.72 | COC(C)CNC(=O)c1cccc(-c2ccc3nc(Nc4ccccc4C#N)nn3c2)c1 (racemic) [Example 11.053, rac-3-{2-[(2-cyanophenyl)amino][1,2,4]triazolo[1,5-a]pyridin-6-yl}-N-(2-methoxypropyl)benzamide] |
